Experimental findings from PMC6582358, “Reversible ADP-ribosylation of RNA” (Nucleic Acids Research, 2019) are described below.

Holding throughout (assay type): biochemical
For one experiment, the target named is T1, PARP3 FL (Homo sapiens, UniProt Q9Y6F1).
T1 construct: full length, His tag (pDEST17)
T1 sequence (Q9Y6F1 1-533): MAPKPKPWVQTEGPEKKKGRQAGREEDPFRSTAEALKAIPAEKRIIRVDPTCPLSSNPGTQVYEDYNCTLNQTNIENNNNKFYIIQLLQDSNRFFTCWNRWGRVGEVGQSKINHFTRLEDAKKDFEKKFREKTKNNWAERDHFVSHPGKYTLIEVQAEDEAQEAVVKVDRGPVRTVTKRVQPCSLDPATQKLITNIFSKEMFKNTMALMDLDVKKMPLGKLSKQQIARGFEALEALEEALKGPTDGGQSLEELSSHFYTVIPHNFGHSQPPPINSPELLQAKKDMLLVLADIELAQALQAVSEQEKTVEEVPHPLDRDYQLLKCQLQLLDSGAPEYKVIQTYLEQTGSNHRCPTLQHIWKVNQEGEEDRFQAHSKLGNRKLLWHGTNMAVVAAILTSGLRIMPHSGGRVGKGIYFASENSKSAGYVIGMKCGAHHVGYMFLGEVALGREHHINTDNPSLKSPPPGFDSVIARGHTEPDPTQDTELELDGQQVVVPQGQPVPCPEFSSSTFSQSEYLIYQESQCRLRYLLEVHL
The experiment can be described thus: […]-NAD+ ADP-ribosylation of DNA, urea-PAGE autoradiography. The settings on record: acceptor DNA ends; pH 7.6, 37 °C; labelled compound.

Another experiment addresses T2, TRPT1 (Homo sapiens, UniProt Q86TN4).
T2 construct: codon-optimised synthetic gene, His tag, pET28a, E. coli Rosetta DE3, Ni and gel filtration
T2 sequence (Q86TN4 1-253): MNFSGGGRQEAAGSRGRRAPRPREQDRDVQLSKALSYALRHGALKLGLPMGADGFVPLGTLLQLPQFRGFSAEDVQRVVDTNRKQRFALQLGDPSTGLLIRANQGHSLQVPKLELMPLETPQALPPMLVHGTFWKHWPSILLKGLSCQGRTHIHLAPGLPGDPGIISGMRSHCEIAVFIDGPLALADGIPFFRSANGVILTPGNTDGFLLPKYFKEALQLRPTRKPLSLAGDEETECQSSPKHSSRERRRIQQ
Description: […]-NAD+ ADP-ribosylation of RNA, urea-PAGE autoradiography. The conditions noted are these: acceptor 5'-phosphorylated ssRNA; 50 uM NAD+, 5 mM MgCl2, pH 7.6, 37 °C; labelled compound.

The next experiment has as its target T3, PARP10 FL (Homo sapiens, UniProt Q53GL7).
T3 construct: full length, His6-SUMO-TEV vector, E. coli Rosetta DE3, Ni, heparin and gel filtration
T3 sequence (Q53GL7 1-1025): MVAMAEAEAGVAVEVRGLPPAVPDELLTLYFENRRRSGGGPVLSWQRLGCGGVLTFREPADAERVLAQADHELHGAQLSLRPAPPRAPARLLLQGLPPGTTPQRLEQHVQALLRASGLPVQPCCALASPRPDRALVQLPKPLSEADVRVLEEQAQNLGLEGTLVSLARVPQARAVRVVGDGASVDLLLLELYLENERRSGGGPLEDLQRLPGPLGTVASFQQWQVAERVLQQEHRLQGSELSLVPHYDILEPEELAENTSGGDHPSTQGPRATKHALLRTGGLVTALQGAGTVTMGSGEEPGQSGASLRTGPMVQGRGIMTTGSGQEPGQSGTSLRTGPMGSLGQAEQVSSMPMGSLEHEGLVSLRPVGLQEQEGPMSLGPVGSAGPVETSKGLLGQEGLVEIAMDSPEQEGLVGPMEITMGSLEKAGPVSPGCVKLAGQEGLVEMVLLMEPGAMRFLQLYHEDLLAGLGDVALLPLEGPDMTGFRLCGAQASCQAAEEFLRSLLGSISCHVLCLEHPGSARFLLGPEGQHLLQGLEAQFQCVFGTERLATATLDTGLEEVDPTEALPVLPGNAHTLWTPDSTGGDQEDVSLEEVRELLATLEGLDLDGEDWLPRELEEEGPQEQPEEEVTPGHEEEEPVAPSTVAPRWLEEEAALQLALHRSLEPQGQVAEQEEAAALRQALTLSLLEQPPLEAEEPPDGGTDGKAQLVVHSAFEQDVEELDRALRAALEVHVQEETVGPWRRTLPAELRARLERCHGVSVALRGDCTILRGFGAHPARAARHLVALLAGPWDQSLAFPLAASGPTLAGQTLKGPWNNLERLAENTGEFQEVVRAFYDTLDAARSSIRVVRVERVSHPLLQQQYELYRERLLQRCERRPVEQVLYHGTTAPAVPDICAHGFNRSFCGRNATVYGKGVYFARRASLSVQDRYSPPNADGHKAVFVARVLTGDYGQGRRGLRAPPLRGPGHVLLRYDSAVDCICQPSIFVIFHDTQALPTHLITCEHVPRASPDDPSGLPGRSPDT
The description is as above. The conditions noted are these: acceptor 5'-phosphorylated ssRNA; 50 uM NAD+, 5 mM MgCl2, pH 7.6, 37 °C; labelled compound.

The target of another experiment is T4, PARP10 cat (Homo sapiens, UniProt Q53GL7).
T4 construct: catalytic domain (818-1025), GST tag (pGEX-4T1), E. coli Rosetta DE3, gel filtration
T4 sequence (Q53GL7 818-1025): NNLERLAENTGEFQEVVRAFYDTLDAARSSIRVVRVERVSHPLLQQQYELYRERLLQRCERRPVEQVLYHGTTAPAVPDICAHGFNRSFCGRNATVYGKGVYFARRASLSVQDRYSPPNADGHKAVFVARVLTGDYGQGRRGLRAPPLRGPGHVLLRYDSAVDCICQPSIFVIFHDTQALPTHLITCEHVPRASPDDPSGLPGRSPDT
The experiment is described as above. The settings on record: acceptor 5'-phosphorylated ssRNA; 50 uM NAD+, 5 mM MgCl2, pH 7.6, 37 °C; labelled compound.

Turning to `NC(=O)c1ccc[n+]([C@@H]2O[C@H](COP(=O)(O)OP(=O)(O)OC[C@H]3O[C@@H](n4cnc5c(N)ncnc54)[C@H](O)[C@@H]3O)[C@@H](O)[C@H]2O)c1` [NAD+], the “32P-NAD+ ADP-ribosylation of DNA, urea-PAGE autoradiography” value at PARP3 FL is reported as “PARP3 could only ADP-ribosylate DNA ends”. Moreover, the “32P-NAD+ ADP-ribosylation of RNA, urea-PAGE autoradiography” value was “TRPT1 based RNA modification is time and NAD^+ concentration dependent” at TRPT1; “PARP10 full length can also ADP-ribosylate phosphorylated RNA ends” on PARP10 FL; “RNA ADP-ribosylation activity of PARP10 is time and NAD^+ concentration dependent” on PARP10 cat.
